Literature values as cited in patent US20100239661A1, “PHARMACEUTICAL COMPOSITIONS OF URSODIOL” (priority 2006, published 2010).
Like-named read-outs stand apart in the source and are kept apart here.

Columns and labels:
[1] = for oral absorption: following oral administration
[2] = unconjugated ursodiol, healthy subjects
[3] = not given; remark: listed apart in the source

- solubility (in chloroform): slightly soluble
- solubility (in ethanol): freely soluble
- solubility (in ether): sparingly soluble
- solubility (in glacial acetic acid): freely soluble
- solubility (in water): practically insoluble
- share of biliary and plasma bile acids ([1]; chronic dose of 13 to 15 mg/kg/day): 30-50%
- oral absorption [1]: rapid and complete
- oral absorption ([1]; listed as ursodiol): incomplete
- hepatic extraction ([1]; once absorbed, in the absence of liver disease): about 50%
- urinary excretion ([1]; with treatment, except in severe cholestatic liver disease): less than 1%
- bound to plasma protein [2]: at least 70%
- solubility (characterisation) [3]: low solubility
SMILES: C[C@H](CCC(=O)O)[C@H]1CC[C@H]2[C@@H]3[C@@H](O)C[C@@H]4C[C@H](O)CC[C@]4(C)[C@H]3CC[C@]12C [Ursodiol, 3α,7β-dihydroxy-5β-cholan-24-oic acid]
